The results in this text go back to PubChem BioAssay (NCI).

Test in all cases: DTP human tumour cell line panel, 48 h
In assay [1] the test system is KM12 colon.
Assay [2] deals with M14 melanoma.
The subject of assay [3] is TK-10 renal.
For assay [4], the system named is A498 renal.
Assay [5] deals with U251 CNS.
Assay [6] relates to NCI-H460 lung.
In assay [7] the test system is UO-31 renal.
In assay [8] the test system is OVCAR-4 ovarian.
In assay [9] the test system is MOLT-4 leukemia.
Assay [10] concerns MDA-MB-435.

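Cells were grown in 96-well plates and exposed to each compound for 48 hours at five concentrations; endpoints were interpolated linearly between bracketing concentrations, or set to the highest concentration if not reached. Abbreviation: GI50, concentration required for 50% inhibition of growth. TGI: concentration producing complete growth inhibition.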

Regarding `O=C(N/N=C/c1cc(Cl)cc(Cl)c1[O-])c1ccccc1.O=C(N/N=C/c1cc(Cl)cc(Cl)c1[O-])c1ccccc1.[Co+2]`, the GI50 in [1] was 27.3 µM; in assay [2], 17.8 µM; in assay [3] it was 41 µM; in assay [4] it was 34.4 µM; in assay [5] it was 33.5 µM; in [6], 16.7 µM. Also, the results for the GI50 in assay [7], in assay [8] and in [9] were 16.8 µM, 16.1 µM and 4.43 µM, respectively. Also, the TGI was over 100 µM in assay [1]; 78.3 µM in [2]; over 100 µM in assay [3]; over 100 µM in assay [4]; over 100 µM in [5]; over 100 µM in [6]. The results for the TGI in [7], in assay [8] and in assay [9] were 73.3 µM, over 100 µM and 21.4 µM, respectively.

For the compound `CCOC(=O)C(CNc1ccc(O)cc1)NC(=O)c1ccccc1` (stereo not drawn), the TGI in [1], in assay [2], in assay [3], in [4], in assay [5] and in assay [6] was over 100 µM each time. Also, the TGI in assay [7], in assay [8] and in assay [9] was over 100 µM throughout.

In the case of `N#Cc1ccc2cc3c(cc2c1)OCO3`, the total growth inhibition concentration (TGI) in assay [1] is over 100 µM; in assay [2], over 100 µM; in assay [4], over 100 µM; in assay [5], over 100 µM; in assay [6], over 100 µM; in [7] it was 89.3 µM. The TGI in [8] and in [9] was over 100 µM throughout.

With `C/C=C/COC(=O)CO[N+](=O)[O-]`, the TGI in assay [1], in [2], in [3], in [5], in assay [6] and in [7] was over 100 µM in each case. Also, the TGI in assay [8] and in [9] was over 100 µM throughout.

For the compound `CN(/N=C/c1cccc2cccnc12)c1c([N+](=O)[O-])cc([N+](=O)[O-])cc1[N+](=O)[O-]`, the TGI in [1], in [2], in [3], in assay [4], in [5] and in assay [6] was over 100 µM in each case. Moreover, the total growth inhibition concentration (TGI) in [8] and in assay [9] was over 100 µM each time.

For the compound `O=C1c2ccccc2C(=O)c2sc(Nc3ccccc3Cl)nc21`, the TGI in assay [1] was 29.6 µM; in assay [2] it was 13.1 µM; in assay [3] it was 34.2 µM; in [4] it was 32.2 µM; in assay [5] it was 19.5 µM; in [6], 29.6 µM. For the same compound, the TGI in [7] stood at 24.4 µM; in assay [8], 22.8 µM; in assay [9], 11.1 µM.

Turning to `O=C(c1ccccc1)n1c(-c2ccccc2)cs/c1=N\S(=O)(=O)c1ccc(N2N=C3c4ccccc4CC3C2c2cccs2)cc1` (stereo not drawn), the GI50 is 38.3 µM in [1]; 33 µM in [2]; 30.5 µM in assay [3]; 32 µM in assay [5]; over 100 µM in assay [6]; 98.1 µM in [7]. Further, the results for the GI50 in assay [8], in assay [10] and in assay [9] were over 100 µM, 31.1 µM and 0.305 µM, respectively. For the same compound, the TGI is over 100 µM in assay [1]; over 100 µM in [2]; 70.7 µM in assay [3]; over 100 µM in assay [5]; over 100 µM in [6]; over 100 µM in [7]. For the same compound, the TGI in assay [8] is over 100 µM; in assay [10], over 100 µM; in [9] it was 21.2 µM.

With `CCOC(=O)/C=C/C(=O)[C@H](CC(C)C)NC(=O)[C@H](Cc1ccccc1)NC(=O)OCc1ccccc1`, the GI50 in [1] is 12.2 µM; in [2], 3.54 µM; in [3] it was 1.87 µM; in [5], 13.2 µM; in assay [6], 16.2 µM; in assay [7], 1.78 µM. In addition, the results for the GI50 in assay [8], in assay [10] and in assay [9] were 12.9 µM, 6.58 µM and 2.42 µM, respectively. Further, the TGI in [1] amounted to 27.8 µM; in assay [2], 13.2 µM; in [3], 3.81 µM; in [5], 27.2 µM; in assay [6] it was 38.2 µM; in assay [7] it was 3.66 µM. Moreover, the results for the TGI in assay [8], in assay [10] and in assay [9] were 26.6 µM, 20.1 µM and 9.25 µM, respectively.

In the case of `Cc1ccc(C)c(NC(=O)CC2SC(=Nc3ccccc3Cl)NC2=O)c1` (stereo not drawn), the total growth inhibition concentration (TGI) in assay [1], in assay [2], in [3], in [4], in [5] and in assay [6] was over 100 µM each time. Also, the TGI in [7], in assay [8] and in assay [9] was over 100 µM each time.

As for `CC1=C[C@H]2C[C@H](C)[C@H]3CC[C@H](C)[C@]4(C1)C(=O)C(O)=C(C)C(=O)[C@@]324`, the GI50 in [1] is 29.4 µM; in assay [2], 29.7 µM; in [3] it was 47.4 µM; in assay [5] it was 32.1 µM; in assay [6] it was 42.9 µM; in assay [7] it was 29.8 µM. The GI50 in [8] was 29.8 µM; in [10] it was 41.1 µM; in assay [9], 16.3 µM. Moreover, the TGI in [1], in assay [2], in [3], in [5], in assay [6] and in assay [7] was over 100 µM each time. In addition, the results for the TGI in [8], in assay [10] and in assay [9] were over 100 µM, over 100 µM and 37.4 µM, respectively.

`COc1ccc(Cn2cc3c(c2-c2ccccc2)CCc2cnoc2-3)cc1N`: the GI50 in assay [1] is 0.0788 µM; in assay [2], 0.227 µM; in assay [3] it was 0.626 µM; in assay [4], 0.0638 µM; in assay [5], 0.287 µM; in [6], 0.115 µM. Also, the values for the GI50 in assay [7], in assay [8] and in assay [9] were 0.967 µM, 0.898 µM and 0.398 µM, respectively. Also, the TGI is 2.58 µM in [1]; over 100 µM in assay [2]; over 100 µM in assay [3]; 0.64 µM in assay [4]; over 100 µM in assay [5]; 1.66 µM in assay [6]. Also, the TGI in [7] is over 100 µM; in assay [8], over 100 µM; in assay [9] it was over 96.1 µM.

In the case of `COC1OC(C)C2OC(C)(C)OC2C1OC(C)=O` (stereo not drawn), the TGI in assay [1], in assay [2], in assay [3], in assay [4], in assay [5] and in assay [6] was over 100 µM in each case. Besides, the TGI in [8] and in [9] was over 100 µM each time.

As to `CCCCCCCCCCCCCC(=O)CSCCNC(=O)CCNC(=O)[C@@H](O)C(C)(C)COP(=O)(O)OP(=O)(O)OCC1OC(n2cnc3c(N)ncnc32)C(O)C1OP(=O)(O)O` (stereo partly drawn), the TGI in assay [1] is 39 µM; in [2] it was 32 µM; in [3] it was over 100 µM; in assay [4] it was 35.5 µM; in [5], 39.2 µM; in assay [6] it was 79.7 µM. For the same compound, the TGI in assay [7] turned out to be 27.6 µM; in assay [8], 22.3 µM.

Turning to `CN(C)CCNC(=O)c1cccc2ccc(-c3ccc(-c4ccccc4)cc3)nc12`, the total growth inhibition concentration (TGI) in assay [1] amounted to 5.6 µM; in assay [2], 3.48 µM; in [3], 9.43 µM; in assay [4], 11 µM; in assay [5], 4.65 µM; in assay [6], 2.98 µM. In addition, the values for the TGI in [7], in assay [8] and in assay [9] were 24.7 µM, 6.74 µM and 5.16 µM, respectively.

For `CCN(CC)CCn1[nH]c2c3ccc(=O)cc3sc3c(NCCN)ccc1c32`, the TGI came to 2.75 µM in assay [1]; 11.3 µM in assay [3]; 3.32 µM in assay [4]; 5.18 µM in [5]; 1.25 µM in assay [6]; 52.1 µM in [7]. The concentration for total growth inhibition (TGI) came out at 2.28 µM in assay [8] and 0.383 µM in assay [9].

Consider `S=C=NCCc1ccccc1`, for which the TGI in [1] worked out at 1.48 µM; in assay [2] it was 1.94 µM; in [3], 3.34 µM; in assay [4], 2 µM; in [5], 2.22 µM; in [6], 0.765 µM. The TGI was determined as 3.94 µM in [7] and 6.33 µM in assay [8].

Take `O=C(C/C(CCC(=O)N(Cc1ccccc1)Cc1ccccc1)=N/Nc1ccc([N+](=O)[O-])cc1[N+](=O)[O-])c1ccccc1`: the TGI in assay [1], in [2], in assay [3], in [5], in assay [6] and in assay [7] was over 100 µM each time. Further, the TGI in assay [8] was over 100 µM; in assay [9] it was 73.9 µM.

Regarding `c1ccc(P(=C2c3ccccc3-c3ccccc32)(c2ccccc2)c2ccccc2)cc1`, the TGI was found to be 5.58 µM in [1]; 32.6 µM in assay [2]; 52.2 µM in assay [3]; 9.18 µM in [5]; 19.2 µM in assay [6]; 70.7 µM in [7]. The TGI in [8] was over 100 µM.

`CC[N+](C)(CC)CC(C)(C)C(=O)/C=C/c1ccc(/C=C/C(=O)C(C)(C)C[N+](C)(CC)CC)cc1`: the TGI in [1], in assay [2], in [3], in [4], in assay [5] and in [6] was over 100 µM in each case. In addition, the TGI in assay [7], in [8] and in assay [9] was over 100 µM throughout.

In the case of `C#CCN(C(=O)C(F)(F)F)c1ccc(C(=O)c2ccc(N(CC#C)C(=O)C(F)(F)F)cc2)cc1`, the TGI in assay [1], in assay [2], in assay [3], in assay [5], in assay [6] and in assay [7] was over 100 µM each time. Also, the total growth inhibition concentration (TGI) was over 100 µM in [8] and 64.9 µM in [9].

For `Cc1nc2sccn2c1C(=O)NC(=O)Nc1ccc(Cl)cc1`, the TGI in assay [1], in assay [2], in [3], in assay [4], in assay [5] and in [6] was over 100 µM throughout. The TGI in assay [7], in assay [8] and in assay [9] was over 100 µM throughout.

In the case of `CCOc1ccc(O)cc1[P+](c1ccccc1)(c1ccccc1)c1ccccc1`, the total growth inhibition concentration (TGI) in assay [1] amounted to 11.7 µM; in assay [2] it was 16.7 µM; in assay [3], 12.9 µM; in assay [4] it was 29.5 µM; in [5] it was 15 µM; in assay [6], 14.5 µM. Further, the TGI amounted to 52.5 µM in assay [7] and 19.4 µM in [8].

For `COC1C2c3cc4c(cc3CC(C#N)(c3ccccc32)N1C(=O)c1ccccc1)OCO4` (stereo not drawn), the TGI in assay [1], in assay [2], in assay [3], in [5], in [6] and in assay [7] was over 100 µM in each case. Besides, in assay [9], the TGI is over 100 µM.

For `Cc1cc(=O)[nH]c(CNC(=O)c2cccc(C(=O)NCc3cc(=O)[nH]c(C)n3)c2)n1`, the TGI in assay [1], in assay [2], in assay [3], in [4], in assay [5] and in assay [6] was over 100 µM throughout. Besides, the TGI in assay [7], in [8] and in [9] was over 100 µM each time.

Take `COC(=O)/C=c1\s/c(=C\C(=O)OC)c2ccccc12`: the TGI in assay [1], in assay [2], in [3], in assay [4], in assay [5] and in assay [7] was over 100 µM throughout. Besides, the TGI in assay [8] and in assay [9] was over 100 µM in each case.

In the case of `O=C(CCc1nnc2s/c(=C\c3ccccc3Cl)c(=O)n12)Nc1cc(Cl)ccc1Cl`, the TGI in assay [1], in assay [2], in assay [3], in [5], in [6] and in [7] was over 100 µM in each case. Also, the TGI in assay [8] and in assay [9] was over 100 µM each time.
